According to US7919117B2, “Transdermal delivery of (R)-3,3-diphenylpropylamin-monoestern” (UCB Pharma GmbH, priority 2003, dated 2011):

Tests used:
[1] = Flow of active ingredient in the human skin model according to Tanojo (in-vitro flux); assay type: in vitro ADME; details: see Table 1
Excerpt: 3.2. Determination of the Flow of Active Ingredient in the Human Skin Model (a) experimental Design The determination of the fesoterodine flux through human skin was essentially performed as described in H. Tanojo et al, J. Control Rel. 45 (1997) 41-47, where instead of the silicone membrane a dialysis membrane was used [[…] Dialysemembran, type 10. 14, obtained from the company Dianorm, Munich, Germany, manufactured from neutral cellulose, exclusion size 5000 Da, thickness (dry): 25 μm; pretreatment in accordance with manufacturer information]. Human skin in a thickness of approximately 250 μm was obtained from the abdomen. A TTS with a surface of 2.545 cm^2 was applied on human skin of equal surface size, where the skin on the acceptor site lays on a […] membrane (FIG. 5). PBS (0.066 molar) was used as the acceptor phase at pH 6.2 and a temperature of 32±0.5° C. The experiments were performed over 72 hours with a 5 ml/hour flux, whereby samples were taken every 3 hours. At the times that the samples are taken, the releasing medium is replaced with fresh medium thermo stated at 32±0.5° C. and the amount of the released fesoterodine measured per HPLC. […]

[2] = Stabilization of fesoterodine in various matrices during storage (drop in concentration); assay type: physicochemical; details: storage for 6 months at 5° C.
Method: While, for example, the free base of fesoterodine is decomposed as an oil after storage for 6 months at 5° C. to around 3-4% a drop in concentration cannot be established or can only be established essentially to a lesser extent when fesoterodine is incorporated in matrices, which contain polar components.

[3] = Stability at processing temperatures in the hot melt procedure; assay type: physicochemical; details: processing temperatures up to 200° C.
Excerpt: In a hot melt procedure the polymers and any auxiliary agents are thermally melted and mixed without the use of any solvents and the meltings spread out on foil. The active ingredient is normally introduced directly into the liquid melt. […] The dynamic viscosity may be determined in the process as described in U.S. Pat. No. 5,328,696.
An alternative procedure that dispenses with the use of organic solvents is the hot melt procedure. In this procedure the polymer or the contact adhesive are melted at temperatures between 70 and 200° C., preferably between 90 and 160° C. and especially preferably between 100 and 150° C. and the active ingredient introduced into the homogenized matrix melt. After a brief homogenization the adhesive matrix that contains the active ingredient is cooled again so that the active ingredient is exposed to a thermal load in general for less than 5 minutes, if desired even for 4, 3, 2 or even for less than 1 minute. Following this the active ingredient is present in the solidified polymer melt. During the process the active ingredient is broadly shielded from critical environmental influences (light, oxygen).

[4] = Flow of active ingredient in the mouse skin model (in-vitro flux, horizontal diffusion cell); assay type: in vitro ADME; details: salt introduced into the polymer layer, also with oleic acid etc. (Table 1)
Method: 3.1. Determination of the Flow of Active Ingredient in the Mouse Skin Model Belly and back skin in a thickness of approximately 120 to 150 μm was used in a horizontal diffusion cell for the flux measurements through mouse skin. Medium: phosphate buffer solution (0.066 molar) pH 6.2, 32° C. Release of the active ingredient was determined by HPLC.

With `CC(C)N(CCC(c1ccccc1)c1cc(CO)ccc1O)C(C)C` (stereo not shown) [2-[3-(1,1-diisopropylamino)-1-phenylpropyl]-4-(hydroxymethyl)phenol] as the compound, how does the “rate of penetration through the human skin (in words)” value [1] read?
Its value is “very low rate of penetration”.

With `CC(C)C(=O)Oc1ccc(CO)cc1[C@H](CCN(C(C)C)C(C)C)c1ccccc1` [fesoterodine, (R)-2-[3-(1,1-diisopropylamino)-1-phenylpropyl]-4-(hydroxymethyl)phenyl isobutyrate] as the compound, how does the “Decomposition of the free base stored as an oil” value [2] read?
Its value is 3-4%.

What about the “stability at hot melt processing temperatures (in words)” value [3] of the same compound?
The value was “surprisingly stable”.

For `CC(C)C(=O)Oc1ccc(CO)cc1[C@H](CCN(C(C)C)C(C)C)c1ccccc1.O=C(O)/C=C/C(=O)O` [fumarate salt from fesoterodine, (R)-2-[3-(1,1-diisopropylamino)-1-phenylpropyl]-4-(hydroxymethyl)phenyl isobutyrate hydrogen fumarate], which “flux rates (in words)” value [4] is on record?
The value was “flux rates not sufficient for transdermal treatment”.
